Source: patent publication EP0962457B1, “Piperidones as tachykinin antagonists” (Pfizer Limited, priority 1998, dated 1999)
Like-named read-outs stand apart in the source and are kept apart here.

Columns and labels:
human NK2 receptor = target: T1, human NK2 receptor (Homo sapiens, UniProt P21452); experiment: NK2 receptor affinity: competition with [3H]-NKA for binding to membranes of Chinese hamster ovary cells expressing the cloned human NK2 receptor; details: CHO cell membranes, 90 min, 25°C, read-out: NK2 receptor affinity (pKi) (converted)
T1 construct: expressed in transfected cells; host or cells: Chinese hamster ovary cells (membranes)
T1 sequence (P21452 1-398): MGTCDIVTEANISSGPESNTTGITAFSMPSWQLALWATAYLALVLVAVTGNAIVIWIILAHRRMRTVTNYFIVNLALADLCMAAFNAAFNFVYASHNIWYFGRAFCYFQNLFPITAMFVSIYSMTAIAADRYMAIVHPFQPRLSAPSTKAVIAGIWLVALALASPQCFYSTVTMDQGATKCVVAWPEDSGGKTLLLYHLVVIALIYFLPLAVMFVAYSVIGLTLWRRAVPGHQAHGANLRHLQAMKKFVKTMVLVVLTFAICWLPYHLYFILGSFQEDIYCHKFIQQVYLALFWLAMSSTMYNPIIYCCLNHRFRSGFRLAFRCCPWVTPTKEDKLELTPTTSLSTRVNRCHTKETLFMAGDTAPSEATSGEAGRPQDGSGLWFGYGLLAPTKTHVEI
Method: The affinity of the compounds of formula (I) and their salts for the human NK2 receptor can be tested in vitro by testing their ability to compete with [^3H]-NKA (neurokinin A) for binding to membranes prepared from Chinese hamster ovary cells expressing the cloned human NK2 receptor. In this method, washed Chinese hamster ovary cell membranes are prepared as described for the previous method where IM9 cells are used instead. The membranes are incubated (90 min, 25°C) with [^3H]-NKA and with a range of concentrations of the test compound. Non-specific binding was determined in the presence of 10µM NKA.
The affinity of the compounds of Tables 1 and 2 for the human NK2 receptor was tested in vitro by testing their ability to compete with [^3H]-NKA for binding to membranes prepared from Chinese hamster ovary cells expressing the cloned human NK2 receptor using the method set out on page 9.
(§1) In Tables 1 and 2 the "pKi" measurement is the negative logarithm of the molar affinity of the test compound for the receptor as determined in radioligand binding assays using standard protocols. A 1.0 log. unit difference in either the NK2 or NK3 receptor affinity figures corresponds to a 10-fold activity difference.

NK3 receptor = target: T2, NK3 receptor (Cavia porcellus, UniProt P30098); experiment: NK3 receptor affinity: inhibition of [3H]-senktide binding to membranes from guinea pig cortex; details: read-out: NK3 receptor affinity (pKi) (converted)
T2 construct: membranes from guinea pig cortex; from tissue; host or cells: guinea pig cortex membranes
T2 sequence (P30098 1-440): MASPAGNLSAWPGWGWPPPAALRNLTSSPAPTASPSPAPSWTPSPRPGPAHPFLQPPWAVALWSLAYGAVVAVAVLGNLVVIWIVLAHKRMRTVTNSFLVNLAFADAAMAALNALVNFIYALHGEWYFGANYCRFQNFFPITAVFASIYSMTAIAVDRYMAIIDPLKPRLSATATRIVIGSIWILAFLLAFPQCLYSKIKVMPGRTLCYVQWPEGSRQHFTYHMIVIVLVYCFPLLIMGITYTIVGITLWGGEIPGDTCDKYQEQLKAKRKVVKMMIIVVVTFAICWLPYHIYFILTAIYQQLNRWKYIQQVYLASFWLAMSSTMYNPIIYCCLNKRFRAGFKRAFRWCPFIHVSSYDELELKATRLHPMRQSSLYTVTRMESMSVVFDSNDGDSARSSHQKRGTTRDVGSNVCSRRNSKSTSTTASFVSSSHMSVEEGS
Method: The compounds of the formula (I) and their salts can be tested for NK3 receptor affinity, in vitro, by testing their ability to inhibit [^3H]-senktide binding to membranes from guinea pig cortex using the method of Guard, et al, Br.J.Pharmacol., 99, 767-773 (1990).
The compounds of Tables 1 and 2 were tested for NK3 receptor affinity, in vitro, by the method described on pages 9 and 10 by testing their ability to inhibit [^3H]-senktide binding to membranes from guinea pig cortex using the method of Guard, et al, Br.J.Pharmacol., 99, 767-773 (1990).
as §1

[1] = In vitro metabolic stability: disappearance half-life in human liver microsomes (HLM/37); assay type: in vitro ADME; details: human liver microsomes HLM/37, test compound 1µM, 37°C, 60 minutes, NADPH, read-out: Metabolic stability (t½)
Method: The in vitro metabolic stability of the compounds of the formula (I) and their salts can be tested by incubating samples for 1 hour at 37°C in the presence of a "moderate activity" (re. concentrations of cytochrome p450 enzymes present) human liver microsomal preparation (prepared from human liver homogenates). The samples were analysed by HPLC at regular intervals during this one hour period and the half-life (t½) determined (in minutes).
The metabolic stability of the compounds of Tables 1 and 2 was determined in vitro by the method described on page 10 according to the following experimental protocol.
Transplant-quality human liver tissue was obtained from the International Institute for the Advancement of Medicine (Exton, PA). The donors ranged in age from 26 to 65 years old and included 3 males and 3 females. Hepatic microsomes were prepared from individual human livers by the process of differential centrifugation. Briefly, the liver tissue was homogenised in 50mM Tris HCI (pH 7.4) containing 250mM sucrose and then centrifuged at 9,000G for 20 minutes to remove the cell debris and nuclear fraction. The supernatant layer was removed and further centrifuged at 105,000G for 60 minutes to pellet the microsomal fraction. […] The cytochrome P450 content was determined using the method of Omura, T., Sato, R., J. Biol. Chem., 239, 2379-2385 (1964) and the protein concentration was determined using the method of Lowry et al., J. Biol. Chem., 193, 265-275 (1951), with bovine serum albumin as the protein standard.
The metabolic activities of the 6 major drug metabolising cytochrome P450 enzymes were determined for HLM/37 and compared to values obtained from a bank of individual human livers (n = 19). […]
Aliquots (100µl) were removed from the incubation at 0, 3, 5, 10, 15, 20, 30, 45 and 60 minutes after the addition of NADPH. […] After centrifugation 150µl aliquots were removed and 120µl of each of these analysed by HPLC on a Hypersil HS C18 5µ column (50x4.6mm) with a mobile phase of methanol:water (90:10, by volume) containing 2mM ammonium acetate. […]

CS(=O)(=O)N1CCC(C2CN(CC[C@]3(c4ccc(Cl)c(Cl)c4)CCC(=O)N(C4CCCC4)C3)C2)CC1 [Example 5]
Ki (human NK2 receptor): 1 nM
Ki (NK3 receptor): 25.1 nM

CCS(=O)(=O)N1CCC(C2CN(CC[C@]3(c4ccc(Cl)c(Cl)c4)CCC(=O)N(CC4CC4)C3)C2)CC1 [Example 8, (5S)-1-(Cyclopropylmethyl)-5-(3,4-dichlorophenyl)-5-(2-[3-[1-(ethylsulfonyl)-4-piperidinyl]-1-azetanyl]ethyl)tetrahydro-2(1H)-pyridinone]
Ki (human NK2 receptor): 6.31 nM

CS(=O)(=O)N1CCC(C2CN(CC[C@]3(c4ccc(Cl)c(Cl)c4)CCC(=O)N(CC4CCCCC4)C3)C2)CC1 [Example 6]
Ki (human NK2 receptor): 20 nM
Ki (NK3 receptor): 5.01 nM

CS(=O)(=O)N1CCC(C2CN(CC[C@]3(c4ccc(Cl)c(Cl)c4)CCC(=O)N(CC4CC4)C3)C2)CC1 [Example 1, (5S)-1-(Cyclopropylmethyl)-5-(3,4-dichlorophenyl)-5-(2-[3-[1-(methylsulfonyl)-4-piperidinyl]-1-azetanyl]ethyl)tetrahydro-2(1H)-pyridinone]
Ki (human NK2 receptor): 3.98 nM
half-life at 1 µM ([1]; pH 7.4): 1.25 h

CS(=O)(=O)N1CCC(C2CN(CC[C@]3(c4ccc(F)c(F)c4)CCC(=O)N(C4CCCCC4)C3)C2)CC1 [Example 7]
Ki (human NK2 receptor): 3.16 nM

CS(=O)(=O)N1CCC(C2CN(CC[C@]3(c4ccc(Cl)c(F)c4)CCC(=O)N(CC4CC4)C3)C2)CC1 [Example 2]
Ki (human NK2 receptor): 2.51 nM
half-life at 1 µM [1]: > 2 h

CS(=O)(=O)N1CCC(C2CN(CC[C@]3(c4ccc(Cl)c(Cl)c4)CCC(=O)N(Cc4ccccc4)C3)C2)CC1 [Example 4]
Ki (human NK2 receptor): 1.26 nM

CS(=O)(=O)N1CCC(C2CN(CC[C@]3(c4ccc(Cl)c(Cl)c4)CCC(=O)N(CCC4CC4)C3)C2)CC1 [Example 3]
half-life at 1 µM [1]: 0.45 h
